“And” between values parts separate entries of the source, which are not always exact repeats. Equal entries are not always repeated. Where two headings read alike, the source gives them in different places.

In experiment [1] the test system is Burkholderia cenocepacia ATCC BAA-245.
The subject of experiment [2] is Pseudomonas aeruginosa PA14.
For experiment [3], the system named is Photorhabdus australis DSM 17609.
Experiment [4] relates to Acinetobacter baumannii ATCC 19606.
For experiment [5], the system named is Pseudomonas aeruginosa PA01.
In experiment [6] the test system is Klebsiella pneumoniae AR347.
Experiment [7] relates to Yersinia pseudotuberculosis ATCC 6904.
Experiment [8] relates to Salmonella enterica Enteritidis AR496.
The test system of experiment [9] is Staphylococcus aureus HG003.
The test system of experiment [10] is Clostridium bifermentans KLE 2329.
Experiment [11] has as its system Shigella sonnei ATCC 25931.
Experiment [12] has as its system Escherichia coli K-12 MG1655.
Experiment [13] concerns Escherichia coli ATCC 25922.
Experiment [14] has as its system Salmonella enterica typhimurium LT2A TCC 19585.
Experiment [15] deals with Veillonella ratti KLE 2365.
Experiment [16] concerns Limosilactobaccilus reuteri LTH5448.
Experiment [17] has as its system Moraxella catarrhalis ATCC 25248.
Experiment [18] relates to Bacteroides stercoris KLE 2537.
Experiment [19] deals with Vibrio vulnificus KLE δ-1125.
The test system of experiment [20] is Bacteroides fragilis KLE 2244.
For experiment [21], the system named is Enterobacter cloaceae ATCC 13047.

Turning to `CC(C)C(NC(=O)C1NC(=O)C(CO)NC(=O)C(CC(N)=O)NC(=O)C(NC(=O)C(CO)NC(=O)C2CCCN2)Cc2c[nH]c3cc(ccc23)C1C(N)=O)C(=O)NC1Cc2cn(cn2)C(c2ccc(O)cc2)C(C(=O)NC(CCCNC(=N)N)C(=O)NC(Cc2ccccc2)C(=O)O)NC(=O)C(CO)NC1=O` (stereo not shown) [Formula (III)], the MIC in experiment [1] is over 1000 µg/mL; against Bacillus subtilis 168 (168) it was over 1000 µg/mL; in experiment [2] (PA14) it was 32 µg/mL; in experiment [3] (DSM 17609), 500 µg/mL; in experiment [4] (ATCC 19606), 8 µg/mL; with Proteus mirabilis BB2000 (BB2000) it was 64 µg/mL. The MIC in [5] was found to be 16 µg/mL; in [6], 125 µg/mL; in experiment [7] (Yersinia pseudotuberculosis ATCC 6904) it was 16 µg/mL; in the experiment on Escherichia coli MG1655 (MG1655) it was 8 µg/mL; in experiment [8] it was 32 µg/mL; in the experiment with Proteus mirabilis H14320 (H14320), 32 µg/mL. Moreover, the MIC in [9] (HG003) was over 1000 µg/mL; with Escherichia coli AR350 it was 16 µg/mL.

`CC(C)C(NC(=O)C1NC(=O)C(CO)NC(=O)C(CC(N)=O)NC(=O)C(N)Cc2c[nH]c3cc(ccc23)C1C(N)=O)C(=O)NC1Cc2cn(cn2)C(c2ccc(O)cc2)C(C(=O)NC(CCCNC(=N)N)C(=O)NC(Cc2ccccc2)C(=O)O)NC(=O)C(CO)NC1=O` (stereo not shown) [Formula (I)]: the MIC is over 128 µg/mL in experiment [10]; over 1000 µg/mL in experiment [1]; 4 µg/mL in experiment [11]; 16 µg/mL in [12]; over 1000 µg/mL against Bacillus subtilis 168 (Bacillus subtilis 168); 16 µg/mL in experiment [2] (Pseudomonas aeruginosa PA14). The MIC is 8 µg/mL in experiment [13]; 250 µg/mL and >128 µg/mL in [3] (Photorhabdus australis DSM 17609 (producer strain; listed twice)); 16 µg/mL in experiment [4] (Acinetobacter baumannii ATCC 19606); 8 µg/mL in [14]; 16 µg/mL in [15]; over 128 µg/mL in experiment [16]. The MIC is 125 µg/mL against Proteus mirabilis BB2000 (Proteus mirabilis BB2000); 8 µg/mL in experiment [5] (Pseudomonas aeruginosa PA01); 2 µg/mL in experiment [17]; over 128 µg/mL in experiment [18]; 64 µg/mL in [6]; 8 µg/mL in [19]. Also, the MIC in [20] is over 128 µg/mL; in experiment [7] (ATCC 6904), 8 µg/mL; in the experiment with Escherichia coli MG1655 (Escherichia coli MG1655), 16 µg/mL; in experiment [8], 8 µg/mL; in the experiment on Proteus mirabilis H14320 (Proteus mirabilis H14320) it was 64 µg/mL; in [9] (Staphylococcus aureus HG003), over 1000 µg/mL. For the same compound, the results for the MIC (against Escherichia coli AR350; in experiment [21]) were 8 µg/mL and 16 µg/mL, respectively.

The MIC is the lowest concentration found to suppress growth. Read a low MIC as a more susceptible organism.

The record behind these values is patent US20240002442A1, “CYCLIC PEPTIDES WITH ANTIMICROBIAL PROPERTIES” (priority 2020, published 2024).
